{"source": "patent US20060264447A1", "about": "“Fungicidal mixtures for controlling rice pathogens” (priority 2003, published 2006)", "tested_on": "Cochliobolus miyabeanus", "assay": "Activity against brown spot of rice caused by Cochliobolus miyabeanus, protective application", "type": "in vivo", "settings": "individual active compound, rice seedlings Tai-Nong 67, protective spray, rated after six days", "experimental": "The active compounds, separately or jointly, were prepared as a stock solution with 0.25% by weight of active compound in acetone or DMSO. 1% by weight of the emulsifier Uniperol® EL (wetting agent having emulsifying and dispersing action based on ethoxylated alkylphenols) was added to this solution, and the solution was diluted with water to the desired concentration.\nLeaves of potted rice seedlings of the cultivar “Tai-Nong 67” were sprayed to runoff point with an aqueous suspension of the concentration of active compound stated below. The next day, the plants were inoculated with an aqueous spore suspension of Cochliobolus miyabeanus. The test plants were then placed in climatized chambers at 22-24° C. and 95-99% relative atmospheric humidity for six days. The extent of the development of the infection on the leaves was then determined visually.\nEvaluation is carried out by determining the percentage of infected plants. These percentages were converted into efficacies.\nThe efficacy (E) is calculated as follows using Abbot's formula: E=(1−α/β)·100 α corresponds to the fungicidal infection of the treated plants in % and β corresponds to the fungicidal infection of the untreated (control) plants in %\nAn efficacy of 0 means that the infection level of the treated plants corresponds to that of the untreated control plants; an efficacy of 100 means that the treated plants are not infected.\nThe expected efficacies of mixtures of active compounds are determined using Colby's formula (Colby, R. S. Weeds, 15, 20-22, 1967) and compared with the observed efficacies.\nColby's formula: E=x+y−x·y/100 • E expected efficacy, expressed in % of the untreated control, when using the mixture of the active compounds A and B at the concentrations a and b • x efficacy, expressed in % of the untreated control, when using the active compound A at the concentration a • y efficacy, expressed in % of the untreated control, when using the active compound B at the concentration b", "data": [{"compound": "C[C@H](Nc1c(-c2c(F)cc(F)cc2F)c(Cl)nc2ncnn12)C(F)(F)F", "note": "[B]", "values": [{"measurement": "Efficacy in % of the untreated control", "setting": "4 ppm in the spray liquor", "value": 5, "unit": "%"}, {"measurement": "Efficacy in % of the untreated control", "setting": "16 ppm in the spray liquor", "value": 41, "unit": "%"}]}, {"compound": "O=[N+]([O-])c1cc(C(F)(F)F)c(Cl)c([N+](=O)[O-])c1Nc1ncc(C(F)(F)F)cc1Cl", "note": "[compound II, 3-chloro-N-[3-chloro-2,6-dinitro-4-(trifluoromethyl)phenyl]-5-(trifluoromethyl)-2-pyridinamine]", "values": [{"measurement": "Efficacy in % of the untreated control", "setting": "4 ppm in the spray liquor", "value": 5, "unit": "%"}, {"measurement": "Efficacy in % of the untreated control", "setting": "16 ppm in the spray liquor", "value": 17, "unit": "%"}]}, {"compound": "CC1CCN(c2c(-c3c(F)cc(F)cc3F)c(Cl)nc3ncnn23)CC1", "note": "[compound I, 5-chloro-7-(4-methylpiperidin-1-yl)-6-(2,4,6-trifluorophenyl)-[1,2,4]triazolo[1,5-a]pyrimidine]", "values": [{"measurement": "Efficacy in % of the untreated control", "setting": "4 ppm in the spray liquor", "value": 5, "unit": "%"}, {"measurement": "Efficacy in % of the untreated control", "setting": "16 ppm in the spray liquor", "value": 17, "unit": "%"}]}, {"compound": "CC1CCN(c2c(-c3c(F)cccc3Cl)c(Cl)nc3ncnn23)CC1", "note": "[A]", "values": [{"measurement": "Efficacy in % of the untreated control", "setting": "4 ppm in the spray liquor", "value": 29, "unit": "%"}, {"measurement": "Efficacy in % of the untreated control", "setting": "16 ppm in the spray liquor", "value": 53, "unit": "%"}]}]}
